According to patent publication US11548939B2, “Therapeutic combinations using IGF1R pathway inhibitors, and methods to predict anti-IGF1R therapeutic efficacy” (UNIVERSITY OF PITTSBURGH-OF THE COMMONWEALTH SYSTEM OF …, priority 2018, dated 2023):
One block for each compound: values may come before it.

How the values were obtained:
MCF-7 cells = assay: Dose response growth assay (CellTiter Glo) in cells transfected with SCR or CDH1 siRNA; format: cell-based; conditions: 6 days
Source text: The CellTiter Glo assay was used to assess cell viability (relative luminescence).
CellTiter Glo assay was used to assess cell viability (relative luminescence).

SUM44PE ILC cells = assay: Synergy measurement (Chou-Talalay combination index), CellTiter Glo viability, 96-well ULA plates, 6 days; conditions: for CI: ED75 / CI: ED90: SUM44PE, drug in combination with ICI 182,780, mean ± SEM, 3 independent experiments
Procedure: SUM44PE ILC cells were plated into 96-well ULA plates and treated for 6 days with increasing doses of OSI-906 (FIG. 10A, 10B), BMS-754807 (FIG. 10C, 10D), or BEZ235 (FIG. 10E, 10F) in combination with increasing doses of ICI 182,780. The dose response curves (FIG. 10A, 10C, 10E) and heat maps (FIG. 10B, 10D, 10F) shown indicate inhibition of cell viability (CellTiter Glo).
For synergy experiments, SUM44PE and MDA-MB-134 cells were plated in 96-well ULA plates (18,000 cells/well) in 100 μl of media/well. […] Synergy was calculated using the Median-Effect Principle and Combination Index-Isobologram Theorem (Chou-Talalay)^27. Combination index values for ED50, ED75, ED90 are shown as a mean±SEM from n=3 independent experiments.
Synergy was measured using the Median-Effect Principle and Combination-Index Isoblogram Theorem. […] Values are shown +/−SEM from 3 independent experiments each with n=2 biological replicates. CI values <1 indicate a synergistic drug interaction.

[1] = system: MDA-MB-134 (MM134) ILC cells; assay: as above; conditions: for CI: ED75 / CI: ED90: MM134, drug in combination with ICI 182,780, mean ± SEM, 3 independent experiments
Procedure: MDA-MB-134 ILC cells were plated into 96-well ULA plates and treated for 6 days with increasing doses of OSI-906 (FIG. 11A, 11B), BMS-754807 (FIGS. 11C, 11D), or BEZ235 (FIGS. 11E, 11F) in combination with increasing doses of ICI 182,780. The dose response curves (FIGS. 11A, 11C, 11E) and heat maps (FIGS. 11B, 11D, 11F) shown indicate inhibition of cell viability (CellTiter Glo). Representative experiment shown; n=3 each with 2 biological replicates per combination of doses.
Plates (2D and ultra-low attachment [ULA; Corning #3474]) were collected on day 6 and viability was measured using CellTiter Glo Viability assay (Promega #G7572). […] For synergy experiments, SUM44PE and MDA-MB-134 cells were plated in 96-well ULA plates (18,000 cells/well) in 100 μl of media/well. […] Synergy was calculated using the Median-Effect Principle and Combination Index-Isobologram Theorem (Chou-Talalay)^27. Combination index values for ED50, ED75, ED90 are shown as a mean±SEM from n=3 independent experiments.
Synergy was measured using the Median-Effect Principle and Combination-Index Isoblogram Theorem. […] Values are shown +/−SEM from 3 independent experiments each with n=2 biological replicates.

ZR75.1 cells = assay: Dose response growth assay (CellTiter Glo) in cells transfected with SCR or CDH1 siRNA; format: cell-based; conditions: 6 days
Source text: FIGS. 5A and 5B show knockdown of E-cadherin increases sensitivity to IGF1R inhibition in breast cancer cells. ZR75.1 cells were reverse transfected with SCR or CDH1 siRNA and seeded into 96-well 2D (FIG. 5A) or ULA (FIG. 5B) plates and treated with OSI-906 for 6 days. CellTiter Glo assay was used to assess cell viability (relative luminescence).

MM134 xenograft tumor = assay: ILC xenograft tumor ex vivo explant culture, Ki67 staining; format: cell-based, human; conditions: 1 μM, 72 hours, vehicle 47%, p=0.002
Procedure: (§1) FIGS. 12A, 12B, 12C, 12D, 12E and 12F show IGF1R inhibition reduces Ki67 staining in ILC tumor ex vivo culture. MM134 (FIGS. 12A, 12B, and 12C) and BCK4 (FIGS. 12D, 12E, and 12F) xenograft tumors were harvested from immunocompromised mice, minced into 1-2 mm^3 tumor chunks and then plated on gelatin sponges in 12-well plate containing 1.5 mL media. Media was treated with DMSO Vhc (FIGS. 12A and 12D) or 1 μM […] (FIGS. 12B and 12E) for 72 hours. Tumor pieces were harvested by FFPE and stained for Ki67 as a marker of proliferation. Staining was quantified for MM134 (FIG. 12C) and BCK4 (FIG. 12F) cells by counting all clearly defined nuclei in 20× images. Statistical difference was assessed using a Student's t-test (p<0.05; n=3-6). […] Nuclei were quantified by counting all clearly defined nuclei within each tissue section (n=3-6). […]

BCK4 xenograft tumor = assay: as above; format: cell-based; conditions: 1 μM, 72 hours, vehicle 25%, p=0.005
Procedure: as §1

difference in EC50 between siSCR and siCDH1 cells (MCF-7 cells; 2D and ULA (FIG. 6)): no statistical difference in EC50
Compound: C[C@]12CC[C@@H]3c4ccc(O)cc4C[C@@H](CCCCCCCCC[S+]([O-])CCCC(F)(F)C(F)(F)F)[C@H]3[C@@H]1CC[C@@H]2O (stereo partly drawn) [ICI 182,780, 7α,17β-[9-[(4,4,5,5,5-Pentafluoropentyl)sulfinyl]nonyl]estra-1,3,5(10)-triene-3,17-diol]
minimum dose reduction index (DRI) for ICI (SUM44PE ILC cells; SUM44PE cells, all drug combinations (OSI, BMS, BEZ), at the EC50): ≥ 8 fold
minimum dose reduction index (DRI) for ICI ([1]; MM134 cells, all drug combinations (OSI, BMS, BEZ), at the EC50): ≥ 2 fold

Compound: C[C@]1(O)C[C@@H](c2nc(-c3ccc4ccc(-c5ccccc5)nc4c3)c3c(N)nccn32)C1 [OSI-906, cis-3-[8-amino-1-(2-phenyl-7-quinolinyl)imidazo[1,5-a]pyrazin-3-yl]-1-methyl-cyclobutanol]
viability of siCDH1 cells compared to siSCR cells in response to treatment (ZR75.1 cells; 2D growth condition): not in the 2D growth condition
viability of siCDH1 cells compared to siSCR cells in response to treatment (ZR75.1 cells; ULA growth condition): significantly decreased viability
viability of siCDH1 cells compared to siSCR cells in response to treatment (MCF-7 cells; 2D growth condition): significantly decreased viability
viability of siCDH1 cells compared to siSCR cells in response to treatment (MCF-7 cells; ULA growth condition): significantly decreased viability
CI: ED75 (SUM44PE ILC cells): 0.250 ± 0.10
CI: ED90 (SUM44PE ILC cells): 0.398 ± 0.22
CI: ED75 [1]: 0.449 ± 0.18
CI: ED90 [1]: 0.808 ± 0.48

Compound: C[C@@]1(C(=O)Nc2ccc(F)nc2)CCCN1c1nc(Nc2cc(C3CC3)[nH]n2)c2cccn2n1 [BMS-754807, (2S)-1-[4-[(5-Cyclopropyl-1H-pyrazol-3-yl)amino]pyrrolo[2,1-f][1,2,4]triazin-2-yl]-N-(6-fluoro-3-pyridinyl)-2-methyl-2-Pyrrolidinecarboxamide]
Ki67 positive nuclei (MM134 xenograft tumor): 22%
viability of siCDH1 cells compared to siSCR cells in response to treatment (MCF-7 cells; 2D growth condition): no significant difference
viability of siCDH1 cells compared to siSCR cells in response to treatment (MCF-7 cells; ULA growth condition): decreased viability
Ki67 positive nuclei (BCK4 xenograft tumor): 11%
CI: ED75 (SUM44PE ILC cells): 0.081 ± 0.04
CI: ED90 (SUM44PE ILC cells): 0.099 ± 0.04
CI: ED75 (SUM44PE ILC cells; listed as BMS): 0.081
CI: ED90 (SUM44PE ILC cells; listed as BMS): 0.099
CI: ED75 [1]: 0.230 ± 0.04
CI: ED90 [1]: 0.667 ± 0.15

Compound: Cn1c(=O)n(-c2ccc(C(C)(C)C#N)cc2)c2c3cc(-c4cnc5ccccc5c4)ccc3ncc21 [BEZ235, 4-[2,3-dihydro-3-methyl-2-oxo-8-(3-quinolinyl)-1H-imidazo[4,5-c]quinolin-1-yl]-α,α-dimethyl-benzeneacetonitrile]
CI: ED75 (SUM44PE ILC cells): 0.401 ± 0.12
CI: ED90 (SUM44PE ILC cells): 0.425 ± 0.12
CI: ED75 [1]: 0.547 ± 0.13
CI: ED90 [1]: 2.885 ± 1.34
